From ChEMBL document CHEMBL3044728, “Synthesis and biological activity of new (E)-alpha-(Methoxyimino)benzeneacetate derivatives containing a substituted pyrazole ring” (2010) come the findings set out here.

Molecules are shown by their SMILES.

Holding throughout (type): functional
In assay [1] the test system is Blumeria graminis. The assay is described as follows: Antifungal activity against Blumeria graminis assessed as inhibition at 6.25 mg/L relative to control.
Assay [2] relates to Pseudoperonospora cubensis. The assay is described as follows: Antifungal activity against Pseudoperonospora cubensis assessed as inhibition at 400 mg/L relative to control.
The test system of assay [3] is Pyricularia oryzae. The assay is described as follows: Antifungal activity against Magnaporthe oryzae assessed as inhibition at 25 mg/L relative to control.
Assay [4] deals with Phytophthora infestans. The assay is described as follows: Antifungal activity against Phytophthora infestans assessed as inhibition at 25 mg/L relative to control.
The test system of assay [5] is Blumeria graminis. The assay is described as follows: Antifungal activity against Blumeria graminis assessed as inhibition at 1.56 mg/L relative to control.
For assay [6], the system named is Blumeria graminis. Briefly: Antifungal activity against Blumeria graminis assessed as inhibition at 400 mg/L relative to control.
Assay [7] has as its system Phytophthora infestans. The assay is described as follows: Antifungal activity against Phytophthora infestans assessed as inhibition at 0.92 mg/L relative to control.
Assay [8] relates to Pseudoperonospora cubensis. Briefly: Antifungal activity against Pseudoperonospora cubensis assessed as inhibition at 25 mg/L relative to control.
The test system of assay [9] is Pseudoperonospora cubensis. The assay is described as follows: Antifungal activity against Pseudoperonospora cubensis assessed as inhibition at 6.25 mg/L relative to control.
For assay [10], the system named is Pyricularia oryzae. Briefly: Antifungal activity against Magnaporthe oryzae assessed as inhibition at 0.92 mg/L relative to control.

As for `CNC(=O)/C(=N/OC)c1ccccc1COc1c(C)c(-c2ccc(C)cc2)nn1C`, the inhibition at 6.25 µg/mL in assay [1] came to 95%. Also, the inhibition at 400 µg/mL came out at 65% in [2] and 100% in assay [6]. Further, the inhibition at 25 µg/mL is 0% in [3] and 100% in assay [4]. For the same molecule, in assay [5], the inhibition at 1.56 µg/mL was 40%. In [7], the inhibition at 0.92 µg/mL was determined as 100%.

For `CO/N=C(/C(=O)OC)c1ccccc1COc1cc(-c2ccc(OC)cc2)nn1C`, in assay [1], the inhibition at 6.25 µg/mL amounted to 10%. The inhibition at 400 µg/mL in [2] was found to be 98%; in assay [6], 100%. The inhibition at 25 µg/mL in assay [3] came to 0%; in [4] it was 100%; in assay [8] it was 50%. Moreover, the inhibition at 0.92 µg/mL in assay [7] is 0%.

Turning to `CO/C=C(/C(=O)OC)c1ccccc1Oc1cc(Oc2ccccc2C#N)ncn1` [AZOXYSTROBIN], the inhibition at 6.25 µg/mL in [9] is 95%; in assay [1], 100%. The inhibition at 400 µg/mL in assay [2] and in assay [6] was 100% throughout. The inhibition at 25 µg/mL in [3] and in assay [8] was 100% throughout. In assay [5], the inhibition at 1.56 µg/mL came to 60%.

For `CO/N=C(/C(=O)OC)c1ccccc1COc1cc(-c2ccccc2Cl)nn1C`, the inhibition at 0.92 µg/mL in [10] and in assay [7] was 0% in each case. Also, the inhibition at 6.25 µg/mL in assay [1] was 75%. Also, the inhibition at 400 µg/mL in [2] came out at 80%; in [6], 100%. For the same molecule, the inhibition at 25 µg/mL in [3] was 100%; in assay [4], 100%; in assay [8], 30%. Also, the inhibition at 1.56 µg/mL in [5] came out at 45%.

Regarding `CNC(=O)/C(=N/OC)c1ccccc1COc1cc(-c2ccccc2Cl)nn1C`, the inhibition at 6.25 µg/mL in [1] worked out at 90%. The inhibition at 400 µg/mL was 90% in assay [2] and 100% in [6]. Moreover, the figures for the inhibition at 25 µg/mL in [3], in assay [4] and in [8] were 0%, 100% and 40%, respectively. Besides, in [5], the inhibition at 1.56 µg/mL amounted to 55%. Moreover, in assay [7], the inhibition at 0.92 µg/mL came to 0%.

Regarding `CNC(=O)/C(=N/OC)c1ccccc1COc1c(C)c(-c2ccc(OCC(F)(F)F)cc2)nn1C`, the inhibition at 6.25 µg/mL in [9] was 30%; in assay [1], 100%. The inhibition at 0.92 µg/mL in assay [10] and in assay [7] was 50% throughout. The inhibition at 400 µg/mL in [2] and in assay [6] was 100% in each case. For the same molecule, the inhibition at 25 µg/mL in [3] came to 80%; in assay [4] it was 100%; in [8], 80%. The inhibition at 1.56 µg/mL in assay [5] stood at 40%.

Take `CO/N=C(/C(=O)OC)c1ccccc1COc1c(C)c(-c2ccc(C)cc2C)nn1C`: the inhibition at 6.25 µg/mL in [9] stood at 98%; in assay [1] it was 100%. In addition, the inhibition at 0.92 µg/mL in [10] is 80%; in [7] it was 100%. The inhibition at 400 µg/mL in [2] and in assay [6] was 100% throughout. Besides, the inhibition at 25 µg/mL in assay [3], in assay [4] and in [8] was 100% in each case. In assay [5], the inhibition at 1.56 µg/mL was 75%.

As for `CNC(=O)/C(=N/OC)c1ccccc1COc1cc(-c2ccc(C(C)(C)C)cc2)nn1C`, the inhibition at 0.92 µg/mL in assay [10] and in assay [7] was 50% each time. Further, the inhibition at 400 µg/mL is 80% in assay [2] and 0% in assay [6]. Also, the results for the inhibition at 25 µg/mL in assay [3], in assay [4] and in assay [8] were 100%, 100% and 0%, respectively.

`CO/N=C(/C(=O)OC)c1ccccc1COc1c(C)c(-c2ccc(C(C)(C)C)cc2)nn1C`: the inhibition at 400 µg/mL in [2] was determined as 40%; in [6], 70%. Besides, the inhibition at 25 µg/mL in [3] was 50%; in assay [4], 0%.

In the case of `CCc1ccc(-c2nn(C)c(OCc3ccccc3/C(=N\OC)C(=O)NC)c2C)cc1`, the inhibition at 0.92 µg/mL turned out to be 0% in assay [10] and 80% in assay [7]. In addition, in assay [1], the inhibition at 6.25 µg/mL was found to be 100%. The inhibition at 400 µg/mL in assay [2] amounted to 50%; in assay [6], 100%. Also, the inhibition at 25 µg/mL in assay [3] and in assay [4] was 100% throughout. Besides, in assay [5], the inhibition at 1.56 µg/mL worked out at 90%.

Turning to `CO/N=C(/C(=O)OC)c1ccccc1COc1cc(-c2ccccc2OC)nn1C`, in assay [10], the inhibition at 0.92 µg/mL came to 50%. In [1], the inhibition at 6.25 µg/mL is 90%. Besides, the inhibition at 400 µg/mL in assay [2] is 50%; in assay [6] it was 100%. Also, the inhibition at 25 µg/mL in [3] amounted to 100%; in assay [4], 0%. For the same molecule, the inhibition at 1.56 µg/mL in assay [5] came out at 40%.

Consider `CCc1ccc(-c2nn(C)c(OCc3ccccc3/C(=N\OC)C(=O)OC)c2C)cc1`, for which the inhibition at 6.25 µg/mL was 50% in [9] and 100% in assay [1]. The figures for the inhibition at 400 µg/mL in assay [2] and in [6] were 98% and 100%, respectively. For the same molecule, the inhibition at 25 µg/mL amounted to 50% in [3], 100% in [4] and 70% in assay [8]. Further, the inhibition at 1.56 µg/mL in assay [5] worked out at 100%. For the same molecule, the inhibition at 0.92 µg/mL in assay [7] was found to be 80%.

In the case of `CNC(=O)/C(=N/OC)c1ccccc1COc1cc(-c2ccc(OC)cc2)nn1C`, the values for the inhibition at 0.92 µg/mL in [10] and in assay [7] were 80% and 0%, respectively. Besides, in assay [1], the inhibition at 6.25 µg/mL was found to be 0%. Further, the inhibition at 400 µg/mL was determined as 98% in assay [2] and 100% in assay [6]. Moreover, the inhibition at 25 µg/mL is 100% in [3], 100% in assay [4] and 30% in assay [8].

As for `CNC(=O)/C(=N/OC)c1ccccc1COc1c(C)c(-c2ccc(Cl)cc2)nn1C`, the inhibition at 6.25 µg/mL in assay [1] stood at 100%. The values for the inhibition at 400 µg/mL in assay [2] and in assay [6] were 80% and 100%, respectively. Further, the inhibition at 25 µg/mL came to 0% in [3], 100% in assay [4] and 40% in assay [8]. For the same molecule, the inhibition at 1.56 µg/mL in assay [5] was determined as 85%.

As for `CO/N=C(/C(=O)OC)c1ccccc1COc1cc(-c2ccc(C(C)(C)C)cc2)nn1C`, the inhibition at 0.92 µg/mL in assay [10] came to 80%; in [7], 60%. The inhibition at 400 µg/mL in [2] was 95%; in assay [6], 0%. Further, the inhibition at 25 µg/mL in assay [3] was 100%; in assay [4] it was 100%; in [8], 0%.

As for `CCOc1ccc(-c2nn(C)c(OCc3ccccc3/C(=N\OC)C(=O)NC)c2C)cc1`, the inhibition at 0.92 µg/mL in assay [10] came to 100%; in assay [7] it was 50%. In addition, the inhibition at 6.25 µg/mL in assay [1] is 100%. In addition, the figures for the inhibition at 400 µg/mL in assay [2] and in assay [6] were 98% and 100%, respectively. Also, the inhibition at 25 µg/mL in assay [3] came out at 100%; in assay [4], 100%; in assay [8], 20%. In addition, in assay [5], the inhibition at 1.56 µg/mL worked out at 70%.

With `CO/N=C(/C(=O)OC)c1ccccc1COc1ccccc1C` [KRESOXIM-METHYL], the inhibition at 6.25 µg/mL was 0% in assay [9] and 100% in [1]. The values for the inhibition at 25 µg/mL in [3], in assay [4] and in [8] were 100%, 100% and 35%, respectively. The inhibition at 1.56 µg/mL in [5] is 100%. Further, the inhibition at 400 µg/mL in assay [6] stood at 100%.

For `CO/N=C(/C(=O)OC)c1ccccc1COc1c(C)c(-c2ccc(C)cc2)nn1C`, the inhibition at 6.25 µg/mL in assay [1] is 100%. Further, the inhibition at 400 µg/mL is 95% in assay [2] and 100% in assay [6]. For the same molecule, the inhibition at 25 µg/mL in assay [3] was found to be 50%; in assay [4], 100%; in assay [8] it was 60%. In addition, the inhibition at 1.56 µg/mL in assay [5] was determined as 100%. Further, in assay [7], the inhibition at 0.92 µg/mL stood at 100%.

Consider `CO/N=C(/C(=O)OC)c1ccccc1COc1c(C)c(-c2ccc(OCC(F)(F)F)cc2)nn1C`, for which, in assay [10], the inhibition at 0.92 µg/mL was determined as 80%. In assay [1], the inhibition at 6.25 µg/mL is 70%. Also, the inhibition at 400 µg/mL amounted to 80% in assay [2] and 100% in assay [6]. Besides, the results for the inhibition at 25 µg/mL in assay [3], in assay [4] and in assay [8] were 100%, 50% and 0%, respectively. For the same molecule, the inhibition at 1.56 µg/mL in assay [5] was determined as 15%.

For `CO/N=C(/C(=O)OC)c1ccccc1COc1c(C)c(-c2ccc(Cl)cc2)nn1C`, the inhibition at 6.25 µg/mL in [9] and in assay [1] was 100% each time. The inhibition at 400 µg/mL in assay [2] and in assay [6] was 100% in each case. The inhibition at 25 µg/mL was found to be 50% in assay [3], 100% in assay [4] and 100% in assay [8]. For the same molecule, the inhibition at 1.56 µg/mL in assay [5] was found to be 98%. In addition, in assay [7], the inhibition at 0.92 µg/mL was 100%.

On to `CNC(=O)/C(=N/OC)c1ccccc1COc1c(C)c(-c2ccc(C(C)(C)C)cc2)nn1C`, for which the inhibition at 0.92 µg/mL in assay [10] stood at 100%; in assay [7] it was 40%. Besides, in assay [1], the inhibition at 6.25 µg/mL was 0%. For the same molecule, the inhibition at 400 µg/mL in assay [2] came out at 95%; in assay [6], 100%. Moreover, the inhibition at 25 µg/mL in [3] is 100%; in assay [4] it was 100%; in [8], 20%. In addition, the inhibition at 1.56 µg/mL in assay [5] came to 0%.

Regarding `CNC(=O)/C(=N/OC)c1ccccc1COc1cc(-c2ccccc2)nn1C`, in [9], the inhibition at 6.25 µg/mL turned out to be 70%. Besides, the inhibition at 400 µg/mL in [2] worked out at 100%; in assay [6], 50%. Besides, the inhibition at 25 µg/mL came out at 0% in assay [3] and 100% in assay [8].
